The values below come from EP1383793B1 (priority 2000, dated 2001).

No end group written: not given here.

In this experiment the target is T1, human insulin receptor (HIR) (Homo sapiens, UniProt P06213).
T1 construct: made in house
T1 sequence (P06213 28-758 limits assumed): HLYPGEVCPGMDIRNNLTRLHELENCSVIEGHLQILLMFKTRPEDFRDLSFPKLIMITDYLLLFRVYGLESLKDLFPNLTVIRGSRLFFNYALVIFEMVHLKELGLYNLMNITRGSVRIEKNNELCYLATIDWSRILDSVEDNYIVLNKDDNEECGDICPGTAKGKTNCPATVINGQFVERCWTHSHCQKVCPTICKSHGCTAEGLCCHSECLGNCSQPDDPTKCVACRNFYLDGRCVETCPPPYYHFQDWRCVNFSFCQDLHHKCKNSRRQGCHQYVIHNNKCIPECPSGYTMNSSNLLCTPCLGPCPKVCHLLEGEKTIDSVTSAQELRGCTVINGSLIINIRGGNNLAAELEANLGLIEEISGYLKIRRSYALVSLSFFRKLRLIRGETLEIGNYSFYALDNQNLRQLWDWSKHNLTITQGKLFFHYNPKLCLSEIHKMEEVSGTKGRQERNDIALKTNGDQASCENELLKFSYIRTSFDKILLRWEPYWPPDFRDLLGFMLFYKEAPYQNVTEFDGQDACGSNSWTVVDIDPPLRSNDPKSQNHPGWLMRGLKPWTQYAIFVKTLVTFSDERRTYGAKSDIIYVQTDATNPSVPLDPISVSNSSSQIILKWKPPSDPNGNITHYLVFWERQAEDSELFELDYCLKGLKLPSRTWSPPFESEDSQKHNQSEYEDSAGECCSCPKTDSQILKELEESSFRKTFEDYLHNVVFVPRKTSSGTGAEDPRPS
T1 sequence (P06213 763-1382 limits assumed): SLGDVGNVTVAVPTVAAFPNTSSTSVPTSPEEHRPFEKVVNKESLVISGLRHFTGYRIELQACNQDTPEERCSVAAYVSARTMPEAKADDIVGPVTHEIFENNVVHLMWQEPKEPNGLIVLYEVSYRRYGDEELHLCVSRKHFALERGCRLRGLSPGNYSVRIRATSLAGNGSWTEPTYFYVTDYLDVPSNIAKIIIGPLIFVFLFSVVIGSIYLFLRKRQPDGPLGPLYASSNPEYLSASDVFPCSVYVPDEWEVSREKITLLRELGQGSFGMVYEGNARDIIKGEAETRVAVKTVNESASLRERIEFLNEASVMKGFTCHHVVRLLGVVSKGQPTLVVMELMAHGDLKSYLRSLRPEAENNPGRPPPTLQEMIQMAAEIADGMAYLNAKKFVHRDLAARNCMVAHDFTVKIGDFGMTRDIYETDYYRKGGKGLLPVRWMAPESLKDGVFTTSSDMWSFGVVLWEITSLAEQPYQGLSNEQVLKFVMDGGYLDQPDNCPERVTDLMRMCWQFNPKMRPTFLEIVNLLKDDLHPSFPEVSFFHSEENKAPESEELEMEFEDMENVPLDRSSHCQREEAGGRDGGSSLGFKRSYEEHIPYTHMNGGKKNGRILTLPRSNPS
The experiment can be described thus: 125I-insulin competition binding assay on solubilised purified receptor. The settings on record: read-out: HIR affinity.
On to `CC(C)[C@H](NC(=O)[C@H](Cc1ccccc1)NC(=O)[C@H](Cc1c[nH]c2ccccc12)NC(=O)[C@H](CC(=O)O)NC(=O)[C@H](Cc1ccc(O)cc1)NC(=O)[C@H](Cc1ccccc1)NC(=O)[C@H](CC(N)=O)NC(=O)[C@H](CCC(=O)O)NC(=O)[C@H](Cc1c[nH]cn1)NC(=O)[C@@H](N)Cc1ccccc1)C(=O)N[C@@H](CCCNC(=N)N)C(=O)N[C@@H](CCC(N)=O)C(=O)N[C@H](C(=O)N[C@@H](CO)C(=O)N[C@@H](CCCCN)C(=O)N[C@@H](CCCCN)C(=O)N[C@@H](CNC(=O)CON=CCCCCC=NOCC(=O)NC[C@H](NC(=O)[C@H](CCCCN)NC(=O)[C@H](CCCCN)NC(=O)[C@H](CO)NC(=O)[C@@H](NC(=O)[C@H](CCC(N)=O)NC(=O)[C@H](CCCNC(=N)N)NC(=O)[C@@H](NC(=O)[C@H](Cc1ccccc1)NC(=O)[C@H](Cc1c[nH]c2ccccc12)NC(=O)[C@H](CC(=O)O)NC(=O)[C@H](Cc1ccc(O)cc1)NC(=O)[C@H](Cc1ccccc1)NC(=O)[C@H](CC(N)=O)NC(=O)[C@H](CCC(=O)O)NC(=O)[C@H](Cc1c[nH]cn1)NC(=O)[C@@H](N)Cc1ccccc1)C(C)C)C(C)C)C(N)=O)C(N)=O)C(C)C` [Clone S169], for which the Kd came out at 0.58 µM.
On to `CC(C)[C@H](NC(=O)[C@H](Cc1ccccc1)NC(=O)[C@H](Cc1c[nH]c2ccccc12)NC(=O)[C@H](CC(=O)O)NC(=O)[C@H](Cc1ccc(O)cc1)NC(=O)[C@H](Cc1ccccc1)NC(=O)[C@H](CC(N)=O)NC(=O)[C@H](CCC(=O)O)NC(=O)[C@H](Cc1c[nH]cn1)NC(=O)[C@H](Cc1ccccc1)NC(=O)CNC(=O)[C@@H](N)CS)C(=O)N[C@@H](CCCNC(=N)N)C(=O)N[C@@H](CCC(N)=O)C(=O)N[C@H](C(=O)N[C@@H](CO)C(=O)N[C@@H](CCCCN)C(=O)N[C@@H](CCCCN)C(N)=O)C(C)C` [Clone S171], for which the Kd was 2.9 µM.
Consider `CC(C)[C@H](NC(=O)[C@H](Cc1ccccc1)NC(=O)[C@H](Cc1c[nH]c2ccccc12)NC(=O)[C@H](CC(=O)O)NC(=O)[C@H](Cc1ccc(O)cc1)NC(=O)[C@H](Cc1ccccc1)NC(=O)[C@H](CC(N)=O)NC(=O)[C@H](CCC(=O)O)NC(=O)[C@H](Cc1c[nH]cn1)NC(=O)[C@@H](N)Cc1ccccc1)C(=O)N[C@@H](CCCNC(=N)N)C(=O)N[C@@H](CCC(N)=O)C(=O)N[C@H](C(=O)N[C@@H](CO)C(=O)N[C@@H](CCCCN)C(=O)N[C@@H](CCCCN)C(=O)N[C@@H](CNC(=O)CON=CCCCCCCC=NOCC(=O)NC[C@H](NC(=O)[C@H](CCCCN)NC(=O)[C@H](CCCCN)NC(=O)[C@H](CO)NC(=O)[C@@H](NC(=O)[C@H](CCC(N)=O)NC(=O)[C@H](CCCNC(=N)N)NC(=O)[C@@H](NC(=O)[C@H](Cc1ccccc1)NC(=O)[C@H](Cc1c[nH]c2ccccc12)NC(=O)[C@H](CC(=O)O)NC(=O)[C@H](Cc1ccc(O)cc1)NC(=O)[C@H](Cc1ccccc1)NC(=O)[C@H](CC(N)=O)NC(=O)[C@H](CCC(=O)O)NC(=O)[C@H](Cc1c[nH]cn1)NC(=O)[C@@H](N)Cc1ccccc1)C(C)C)C(C)C)C(N)=O)C(N)=O)C(C)C` [Clone S172], for which the Kd is 4.8 µM.
As to AAAAFYDWFAAAAAKK-NH2 [Clone S168], the Kd was 3.8 µM.
The figure for AFYDWF-NH2 [Clone S182] is more than 20 µM; for AFYDWFA-NH2 [Clone S181] it is more than 20 µM.
AFYDWFAK-NH2 [Clone S180]: the Kd was more than 20 µM.
Take AFYEWFAKK-NH2 [Clone S214]: the Kd was more than 20 µM.
On to AFYGWFAKK-NH2 [Clone S215], for which the Kd was more than 20 µM.
With AFYKWFAKK-NH2 [Clone S216], the Kd is more than 20 µM.
Next, AHENFYDWFVRQVSKK-NH2 [Clone S113]: 0.59 µM; ALEEEWAWVQVRSIRSGLPL-NH2 [Clone S284]: more than 20 µM.
APVSTEELRWGALLFGQWAG-NH2 [Clone S283]: the Kd is more than 20 µM.
For DPFYQGLWEWLRESGEE-NH2 [Clone S289], the Kd was more than 20 µM.
FAENFYDWFVRQVSKK-NH2 [Clone S112]: the Kd is 0.61 µM.
As for FHENFYDWFVAQVSKK-NH2 [Clone S108], the Kd worked out at 0.75 µM.
For the compound FHENFYDWFVRAVSKK-NH2 [Clone S107], the Kd came to 1 µM.
